Assay results as given in article PMC3651882 (Bioconjugate chemistry, 2013).

What was measured:
Type in all cases: cell-based, human
KB-V1 cells [1] = experiment: Cellular uptake by flow cytometry; settings: for Time dependence of cell fluorescence intensity (in words): 5 μM, 1, 2 and 4 h
KB-3-1 cells [2] = experiment: Cellular uptake by flow cytometry; settings: 2.5-15 μM, 2 h
KB-3-1 cells [3] = experiment: Cytotoxicity, SRB method; settings: 50 NM as printed, 2 h incubation
KB-V1 cells [4] = experiment: Cytotoxicity, SRB method; settings: 50 μM, 2 h incubation
KB-3-1 cells [5] = experiment: Subcellular colocalization, confocal microscopy; settings: 15 μM, 2 h, Lysotracker Green, Hoechst 33342
KB-V1 cells [6] = experiment: Subcellular colocalization, confocal microscopy; settings: 15 μM, 2 h, Lysotracker Green, Hoechst 33342

| SMILES | Time dependence of cell fluorescence intensity (in words) (KB-V1 cells [1]) | Cellular uptake (in words) (KB-V1 cells [1]; 2.5-15 μM, 2 h) | Cellular uptake (in words) (KB-3-1 cells [2]) | Cytotoxicity (in words) (KB-3-1 cells [3]) | Cytotoxicity (in words) (KB-V1 cells [4]) | Cells killed (cell death) (KB-V1 cells [4]; then 46 h fresh medium, SRB) | Subcellular location (in words) (KB-3-1 cells [5]) | Subcellular location (in words) (KB-V1 cells [6]) |
| --- | --- | --- | --- | --- | --- | --- | --- | --- |
| O=C(O)c1ccc2c(c1)C(=O)OC21c2ccc(O)cc2Oc2cc(O)ccc21 [5-FAM, 5-carboxyfluorescein] | did not change with time | – | – | – | – | – | – | – |
| COc1cccc2c1C(=O)c1c(O)c3c(c(O)c1C2=O)C[C@@](O)(C(=O)CO)C[C@@H]3O[C@H]1C[C@H](N)[C@H](O)[C@H](C)O1 [Dox, doxorubicin] | did not change with time | greatly inhibited | very efficient | nearly all the cells were killed | no significant cytotoxicity | 14% | no preference to accumulate in any subcellular organelles | dim red fluorescence was observed only on the membrane |
